Laboratory results taken from patent US9790136B2, “Urea and nitrogen stabilizer compositions and methods and systems of making and using thereof” (Koch Agronomic Services, LLC, priority 2013, dated 2017).
Like-named read-outs stand apart in the source and are kept apart here.

Tests used:
[1] = cited from earlier work
[2] = Water, HCHO and biuret content of urea compositions by IR and/or HPLC; type: physicochemical; details: average
Protocol: The water, HCHO, NBPT and biuret content of the urea compositions were analyzed by IR and/or HPLC. All concentrations were calculated in μg/ml unless otherwise noted. HPLC samples were prepared by weighing approximately 0.4 grams of sample into a 10-20 mL disposable glass vial or volumetric flask. For high concentration samples (>30% inhibitor), approximately 0.025 grams of sample was weighed into a 100 mL volumetric flask. For lower concentration samples, 10 mL of water was added and the sample was shaken until the sample was dissolved. For higher concentration samples, the sample was diluted to the 100 mL mark with diluent. A disposable dropper was used to transfer the sample into an autosampler vial. The sample was analyzed in duplicate including a diluent blank using the conditions below. The evaluation was carried out by the method of external standard with the calibration using a calibration line. A minimum of 2 sets of standards as set out below were run before and after unknowns. RSD is the relative deviation in rel. %, calculated from three repeats of sampling and two repeats of analysis of each sample (see EP 15688). […]
The chromatogram was evaluated at the wavelength of 214 nm. […]

[3] = Crush strength of urea particles; type: physicochemical; details: average strength of 20 particles
Protocol: The crush strength was determined by subjecting individual particles of urea to a measured force, applied by means of a metal plunger. The force, at which the particle fractures, was taken as a measure of strength. The average strength of 20 particles were reported.

[4] = SGN of granular product (product specifications); type: physicochemical; details: average

% HCHO [2] [%] | Crush Strength [3] [lbs] | SGN [4] | Structure (SMILES) | half-life of NBPT ([1]; NBPT injected into the melted urea before granulation) | half-life of NBPT ([1]; surface-treated urea)
– | – | – | CCCCNP(N)(N)=S [NBPT, N-(n-butyl) thiophosphoric triamide] | more than one | about six
<0.5 | 7.5 | 277.0 | NC(N)=O [Urea] | – | –
